According to patent US20260217701A1, “SELECTIVE BET INHIBITORS AND USES THEREOF” (Tay Therapeutics Limited, priority 2022, published 2026):
Several values for one entry are separate records, joined by “and”; a condition that tells them apart may be missing. Equal values may be shown once.

Tested on: imiquimod-induced psoriasis
Test: Imiquimod-induced psoriasis model
Assay type: in vivo, mice
Set-up: Spleen Weight / Spleen Weight Ratio: unit not given here
Conditions: for PASI Scores: IMI + Apremilast 3 mg/kg; for Mean scores of the presence of erythema on the skin of animals at the area of induction of psoriasis / Mean scores of the presence of induration on the skin of animals at the area of induction of psoriasis / Mean scores of the presence of peeling on the skin of animals at the area of induction of psoriasis: mean ± SEM
Text: Imiquimod-induced psoriasis is a model of psoriasis in mice that induces psoriasis-like dermatitis. The pathology closes resembles human plaque-type psoriasis and is a valuable tool for testing new therapies against psoriasis. […] Compound A was formulated in a 5% DMSO/40% PEG-400/55% (0.9% NaCl w/v water) solution (Table 2F). Experimental groups for the study are outlined in Table 4. Prior to study initiation, the backs of all animals in the study were depilated to allow for induction of psoriasis and monitoring of disease progression.
Once assigned to experimental groups, on Day 1 and continuing through Day 14, topical imiquimod (IMI; Aldara™ containing 5% Imiquimod) was administered to the dorsal depilated animals, and animals in group 1 received topical administration of Excipial® hydrocream (65 mg). […] Clobetasol was applied topically for animals in group 11.
Body weights were recorded three times a week from Day 1 to Day 8, and daily from Day 8 until the study end at Day 15. At termination on D15 the spleen weight ratio was determined. Disease severity was assessed using the psoriasis area severity index (PASI) daily from Day 8 until study completion on Day 15. The PASI score was calculated based on three parameters (presence of erythema, induration of the skin, and peeling of the skin at the area of induction) on a scale of 0 to 4 (0=no more or absence, 1=low, 2=moderate, 3=high, 4=severe). The PASI score for each animal was calculated as the sum of the score of each parameter measured. The score of the use of enrichment (SUE) was also assessed daily from Day 8 to Day 15. At study completion on Day 15, animal behavior was evaluated using an open field to assess distance travelled, number scratching, and licking and rearing performed in 10 minutes. Upon study termination animals were sacrificed, the spleen was excised and weighed, and blood samples were collected. Serum was isolated from the blood sample for cytokine and other biomarker analysis. IL-1B, IL-6, IL-17, and TNF-α assayed using simple plex technique on an ELLA automated immunoassay system. IL-22 and IL-23 were assayed by ELISA.
The imiquimod-induced model of psoriasis was used to assess the efficacy of Compound A in treating psoriasis. […] Treatment started on Day 8 after induction so reference to day 1 of treatment is to Day 8 and day 7 of treatment is to Day 14.

[1] = IMI-psoriasis model, behavioral evaluation D15, 3 mg/kg, individual animals
[2] = IMI-psoriasis model, behavioral evaluation, 3 mg/kg, individual animals
[3] = IMI-psoriasis model, mice, 3 mg/kg, individual animals
[4] = IMI + 3 mg/kg, D8 (before start of treatment)

`CCOc1cc([C@@H](CS(C)(=O)=O)N2C(=O)c3cccc(NC(C)=O)c3C2=O)ccc1OC` [Apremilast, reference compound] was tested, and the “Body Weight D1” value (IMI + 3 mg/kg, Day 1 (before treatment start on Day 8), individual animals, 3 mg/kg, in g (unit assumed)) was 18.04 and 18.00 and 18.05 and 18.89 and 15.16 and 17.91 and 18.62 and 18.72, the “Body Weight D3” value (IMI + 3 mg/kg, Day 3 (before treatment start on Day 8), individual animals, 3 mg/kg, in g (unit assumed)) was 15.91 and 16.38 and 17.39 and 17.17 and 13.24 and 16.46 and 17.63 and 16.03 and the “Body Weight D5” value (IMI + 3 mg/kg, Day 5 (before treatment start on Day 8), individual animals, 3 mg/kg, in g (unit assumed)) was 16.70 and 17.24 and 17.88 and 17.91 and 13.95 and 16.38 and 17.65 and 16.94. For the same compound, the “Body Weight D7” value (IMI + 3 mg/kg, Day 7 (before treatment start on Day 8), individual animals, 3 mg/kg, in g (unit assumed)) was 16.55 and 16.74 and 17.25 and 17.69 and 15.07 and 16.92 and 17.97 and 17.32, the “Body Weight D8” value (IMI + 3 mg/kg, Day 8 (first day of treatment), individual animals, 3 mg/kg, in g (unit assumed)) was 16.41 and 16.59 and 17.27 and 17.43 and 13.81 and 17.05 and 17.50 and 16.19 and the “Body Weight D9” value (IMI + 3 mg/kg, Day 9, individual animals, 3 mg/kg) was 16.75 and 17.41 (2×) and 17.44 and 17.12 and 13.85 and 17.04 and 16.34. The “Body Weight D10” value (IMI + 3 mg/kg, Day 10, individual animals, 3 mg/kg, in g (unit assumed)) was 17.13 and 17.32 and 17.55 and 17.39 and 13.82 and 17.24 and 17.62 and 17.09, the “Body Weight D11” value (IMI + 3 mg/kg, Day 11, individual animals, 3 mg/kg, in g (unit assumed)) was 16.87 and 17.60 and 17.50 and 17.32 and 14.44 and 17.59 and 17.99 and 17.89 and the “Body Weight D12” value (IMI + 3 mg/kg, Day 12, individual animals, 3 mg/kg, in g (unit assumed)) was 17.32 and 18.46 and 17.58 and 17.84 and 14.88 and 18.39 and 18.34 and 18.22. For the same compound, the “Body Weight D13” value (IMI + 3 mg/kg, Day 13, individual animals, 3 mg/kg, in g (unit assumed)) was 17.57 and 18.62 and 18.39 and 18.19 and 14.70 and 18.17 and 18.61 and 18.32, the “Body Weight D14” value (IMI + 3 mg/kg, Day 14, individual animals, 3 mg/kg, in g (unit assumed)) was 17.89 and 18.64 and 18.56 and 18.40 and 15.26 and 17.85 and 18.49 and 18.20 and the “Body Weight D15” value (IMI + 3 mg/kg, Day 15, individual animals, 3 mg/kg) was 18.27 and 18.85 (2×) and 18.94 and 15.48 and 18.37 and 18.62 and 18.57. The “MBWC D1-D8” value (IMI + 3 mg/kg, body weight change Day 1 to Day 8 (before treatment), individual animals, 3 mg/kg) was −1.63 and −1.41 and −0.78 and −1.46 and −1.35 and −0.86 and −1.12 and −2.53, the “MBWC D8-D15” value (IMI + 3 mg/kg, body weight change Day 8 to Day 15 (treatment period), individual animals, 3 mg/kg) was 1.86 and 2.26 and 1.67 (2×) and 1.42 and 1.32 and 1.12 and 2.38 and the “PASI Scores” value (D8 (day treatment started), individual animals) was 9 and 7 (4×) and 8 (2×) and 6. The “PASI Scores” value (D9, individual animals) was 8 and 5 (2×) and 7 and 6 (3×) and 4, the “PASI Scores” value (D10, individual animals) was 6 (2×) and 7 (2×) and 4 (4×) and the “PASI Scores” value (D11, individual animals) was 5 (4×) and 4 (4×). For the same compound, the “PASI Scores” value (D12, individual animals) was 3 (4×) and 5 and 2 (2×) and 1, the “PASI Scores” value (D13, individual animals) was 1 (3×) and 0 (3×) and 2 (2×) and the “PASI Scores” value (D14, individual animals) was 2 and 0 (3×) and 1 (4×). The “PASI Scores” value (D15, individual animals) was 1 (3×) and 0 (5×), the “Use Enrichment D1” value (IMI-psoriasis model, D1, 3 mg/kg, per cage (two animals)) was 4.0 and the “Use Enrichment D10” value (IMI-psoriasis model, D10, 3 mg/kg, per cage (two animals)) was 2.5 and 3.0 and 2.0. For the same compound, the “Use Enrichment D11” value (IMI-psoriasis model, D11, 3 mg/kg, per cage (two animals)) was 3.5 and 4.0 and 3.0, the “Use Enrichment D12” value (IMI-psoriasis model, D12, 3 mg/kg, per cage (two animals)) was 3.5 and 2.5 and 3.0 and the “Use Enrichment D13” value (IMI-psoriasis model, D13, 3 mg/kg, per cage (two animals)) was 4.0. For the same compound, the “Use Enrichment D14” value (IMI-psoriasis model, D14, 3 mg/kg, per cage (two animals)) was 4.0, the “Use Enrichment D15” value (IMI-psoriasis model, D15, 3 mg/kg, per cage (two animals)) was 4.0 and the “Number Licking” value [1] was 4 (2×) and 5 and 1 and 2 (2×) and 3 (2×). The “Number Licking + Scratching” value [1] was 5 and 6 and 1 and 2 (2×) and 7 and 3 (2×), the “Number Scratching” value [1] was 1 (2×) and 0 (5×) and 3 and the “Distance Traveled” value [2] was 10 m and 13 m and 8 m and 11 m (2×) and 17 m and 9 m and 15 m. The “Number Rearings” value [2] was 20 and 58 and 21 and 42 and 81 and 13 and 60 and 12, the “Use Enrichment Mean D1-D8” value (IMI-psoriasis model, mean D1-D8, 3 mg/kg, per cage (two animals)) was 2.50 and 2.00 and the “Use Enrichment Mean D8-D15” value (IMI-psoriasis model, mean D8-D15, 3 mg/kg, per cage (two animals)) was 3.07 and 3.36 and 2.93. For the same compound, the “Spleen Weight” value [3] was 180.97 and 286.06 and 424.79 and 208.70 and 207.33 and 227.51 and 223.09 and 221.44, the “Spleen Weight Ratio” value [3] was 990.53 and 1517.56 and 2242.82 and 1107.16 and 1339.34 and 1238.49 and 1198.12 and 1192.46 and the “Mean scores of the presence of erythema on the skin of animals at the area of induction of psoriasis” value (from here on “Mean scores of the presence of erythema”) [4] was 2.1 ± 0.1. The “Mean scores of the presence of induration on the skin of animals at the area of induction of psoriasis” value [4] was 3.0 ± 0.0, the “Mean scores of the presence of peeling on the skin of animals at the area of induction of psoriasis” value (“Mean scores of the presence of peeling” below) [4] was 2.5 ± 0.2 and the “Mean scores of the presence of erythema” value (IMI + 3 mg/kg, D9) was 1.5 ± 0.2. The “Mean scores of the presence of induration on the skin of animals at the area of induction of psoriasis” value (IMI + 3 mg/kg, D9) was 2.3 ± 0.2, the “Mean scores of the presence of peeling” value (IMI + 3 mg/kg, D9) was 2.1 ± 0.2 and the “Mean scores of the presence of erythema” value (IMI + 3 mg/kg, D10) was 1.6 ± 0.2. The “Mean scores of the presence of induration on the skin of animals at the area of induction of psoriasis” value (IMI + 3 mg/kg, D10) was 2.0 ± 0.2, the “Mean scores of the presence of peeling” value (IMI + 3 mg/kg, D10) was 1.6 ± 0.3 and the “Mean scores of the presence of erythema” value (IMI + 3 mg/kg, D11) was 1.4 ± 0.2. The “Mean scores of the presence of induration on the skin of animals at the area of induction of psoriasis” value (IMI + 3 mg/kg, D11) was 1.8 ± 0.2, the “Mean scores of the presence of peeling” value (IMI + 3 mg/kg, D11) was 1.4 ± 0.2 and the “Mean scores of the presence of erythema” value (IMI + 3 mg/kg, D12) was 0.75 ± 0.2. The “Mean scores of the presence of induration on the skin of animals at the area of induction of psoriasis” value (IMI + 3 mg/kg, D12) was 0.9 ± 0.2, the “Mean scores of the presence of peeling” value (IMI + 3 mg/kg, D12) was 1.1 ± 0.1 and the “Mean scores of the presence of erythema” value (IMI + 3 mg/kg, D13) was 0.3 ± 0.2. For the same compound, the “Mean scores of the presence of induration on the skin of animals at the area of induction of psoriasis” value (IMI + 3 mg/kg, D13) was 0.4 ± 0.2, the “Mean scores of the presence of peeling” value (IMI + 3 mg/kg, D13) was 0.3 ± 0.2 and the “Mean scores of the presence of erythema” value (IMI + 3 mg/kg, D14) was 0.0 ± 0.0. For the same compound, the “Mean scores of the presence of induration on the skin of animals at the area of induction of psoriasis” value (IMI + 3 mg/kg, D14) was 0.4 ± 0.2, the “Mean scores of the presence of peeling” value (IMI + 3 mg/kg, D14) was 0.4 ± 0.2 and the “Mean scores of the presence of erythema” value (IMI + 3 mg/kg, D15) was 0.1 ± 0.1. The “Mean scores of the presence of induration on the skin of animals at the area of induction of psoriasis” value (IMI + 3 mg/kg, D15) was 0.1 ± 0.1, the “Mean scores of the presence of peeling” value (IMI + 3 mg/kg, D15) was 0.1 ± 0.1 and the “Mean PASI Scores in IMI-Psoriasis Model” value (mice, IMI + 3 mg/kg, D8 (before start of treatment)) was 7.4 ± 0.3. The “Mean PASI Scores in IMI-Psoriasis Model” value (mice, IMI + 3 mg/kg, D9) was 5.9 ± 0.4, the “Mean PASI Scores in IMI-Psoriasis Model” value (mice, IMI + 3 mg/kg, D10) was 5.3 ± 0.5 and the “Mean PASI Scores in IMI-Psoriasis Model” value (mice, IMI + 3 mg/kg, D11) was 4.5 ± 0.2. The “Mean PASI Scores in IMI-Psoriasis Model” value (mice, IMI + 3 mg/kg, D12) was 2.8 ± 0.4, the “Mean PASI Scores in IMI-Psoriasis Model” value (mice, IMI + 3 mg/kg, D13) was 0.9 ± 0.3 and the “Mean PASI Scores in IMI-Psoriasis Model” value (mice, IMI + 3 mg/kg, D14) was 0.8 ± 0.3. The “Mean PASI Scores in IMI-Psoriasis Model” value (mice, IMI + 3 mg/kg, D15) was 0.4 ± 0.2.
